In ChEMBL document CHEMBL4507260 (2021):
Calls of active or inactive are those of the source. The rule behind the calls is not given here.

What was measured:
D(4) dopamine receptor [1] = target: T1, D(4) dopamine receptor (Homo sapiens, UniProt P21917); assay: Cellular FLIPR (fluorometric imaging plate reader) assay
T1 sequence (P21917 whole entry): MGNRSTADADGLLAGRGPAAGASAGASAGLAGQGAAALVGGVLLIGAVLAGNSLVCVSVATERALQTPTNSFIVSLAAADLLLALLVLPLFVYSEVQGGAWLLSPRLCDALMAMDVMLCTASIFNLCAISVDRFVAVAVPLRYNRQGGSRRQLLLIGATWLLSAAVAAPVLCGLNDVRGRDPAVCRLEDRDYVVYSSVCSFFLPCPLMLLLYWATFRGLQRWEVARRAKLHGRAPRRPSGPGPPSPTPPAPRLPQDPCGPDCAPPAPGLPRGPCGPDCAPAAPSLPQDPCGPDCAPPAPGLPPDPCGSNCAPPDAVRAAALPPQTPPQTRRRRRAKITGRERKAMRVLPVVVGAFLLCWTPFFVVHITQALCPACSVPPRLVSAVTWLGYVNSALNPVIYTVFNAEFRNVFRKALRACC

[2] = target: Dual specificity protein kinase CLK4 (Homo sapiens) (UniProt Q9HAZ1); details: Compound concentration 1000.0 nM
[3] = test system: Epidermal growth factor receptor (Homo sapiens), P00533 [G719C]; details: Compound concentration 1000.0 nM
[4] = target: 5-hydroxytryptamine receptor 2C (Homo sapiens) (UniProt P28335); details: Compound concentration 10.0 uM
Description: 5-HT2C CEREP ligand profiling

[5] = target: Cannabinoid receptor 2 (Homo sapiens) (UniProt P34972); details: Compound concentration 10.0 uM
Description: CB2 CEREP ligand profiling

D(4) dopamine receptor [6] = target: D(4) dopamine receptor (Homo sapiens, UniProt P21917); assay: Radioligand assay (DRD4.7)
[7] = target: Type-1 angiotensin II receptor (Homo sapiens) (UniProt P30556); details: Compound concentration 10.0 uM
Description: AT1 CEREP ligand profiling

[8] = target: Type-2 angiotensin II receptor (Homo sapiens) (UniProt P50052); details: Compound concentration 10.0 uM
Description: AT2 CEREP ligand profiling

[9] = target: 5-hydroxytryptamine receptor 3A (Homo sapiens) (UniProt P46098); details: Compound concentration 10.0 uM
Description: 5-HT3 CEREP ligand profiling

[10] = target: Adenosine receptor A1 (Homo sapiens) (UniProt P30542); details: Compound concentration 10.0 uM
Description: A1 CEREP ligand profiling

[11] = target: Muscarinic acetylcholine receptor M1 (Homo sapiens) (UniProt P11229); details: Compound concentration 10.0 uM
Description: M1 CEREP ligand profiling

[12] = target: D(1A) dopamine receptor (Homo sapiens) (UniProt P21728); assay: D1 CEREP ligand profiling; details: Compound concentration 10.0 uM
[13] = target: Bombesin receptor (Homo sapiens) (UniProt P28336+P32247+P30550); details: Compound concentration 10.0 uM
Description: Bombesin CEREP ligand profiling

[14] = target: Histamine H2 receptor (Homo sapiens) (UniProt P25021); details: Compound concentration 10.0 uM
Description: H2 CEREP ligand profiling

[15] = target: P2X receptor (Rattus norvegicus) (UniProt P51579+P49653+P51578+Q64663+P47824+P51577+P49654); details: Compound concentration 10.0 uM
Description: P2X CEREP ligand profiling

[16] = target: Nociceptin receptor (Homo sapiens) (UniProt P41146); details: Compound concentration 10.0 uM
Description: ORL1 CEREP ligand profiling

[17] = target: Vasopressin V1a receptor (Homo sapiens) (UniProt P37288); details: Compound concentration 10.0 uM
Description: V1A CEREP ligand profiling

[18] = target: Muscarinic acetylcholine receptor M2 (Homo sapiens) (UniProt P08172); details: Compound concentration 10.0 uM
Description: M2 CEREP ligand profiling

[19] = target: Sodium-dependent dopamine transporter (Homo sapiens) (UniProt Q01959); assay: DA transporter CEREP ligand profiling; details: Compound concentration 10.0 uM
[20] = target: Endothelin receptor type B (Homo sapiens) (UniProt P24530); details: Compound concentration 10.0 uM
Description: ETB CEREP ligand profiling

[21] = target: Adenosine receptor A2a (Homo sapiens) (UniProt P29274); assay: A2A CEREP ligand profiling; details: Compound concentration 10.0 uM
[22] = target: 5-hydroxytryptamine receptor 6 (Homo sapiens) (UniProt P50406); details: Compound concentration 10.0 uM
Description: 5-HT6 CEREP ligand profiling

[23] = target: GABA-A receptor; anion channel (Homo sapiens) (UniProt P14867+P47870+P18507+P28472+P48169+Q99928+Q9UN88+P34903+O00591+O14764+Q8N1C3+P18505+P78334+P47869+P31644+Q16445); details: Compound concentration 10.0 uM
Description: BZD (central) CEREP ligand profiling

[24] = target: Adrenergic receptor alpha-2 (Homo sapiens) (UniProt P08913+P18825+P18089); assay: a 2 CEREP ligand profiling; type: protein assay; details: Compound concentration 10.0 uM
[25] = target: Pituitary adenylate cyclase-activating polypeptide type I receptor (Homo sapiens) (UniProt P41586); details: Compound concentration 10.0 uM
Description: PACAP CEREP ligand profiling

[26] = target: Neurotensin receptor type 1 (Homo sapiens) (UniProt P30989); details: Compound concentration 10.0 uM
Description: NT1 (NTS1) CEREP ligand profiling

[27] = target: B2 bradykinin receptor (Homo sapiens) (UniProt P30411); details: Compound concentration 10.0 uM
Description: B2 CEREP ligand profiling

[28] = target: Somatostatin receptor (Homo sapiens) (UniProt P35346+P30874+P31391+P30872+P32745); details: Compound concentration 10.0 uM
Description: Somatostatin CEREP ligand profiling

[29] = target: Kappa-type opioid receptor (Homo sapiens) (UniProt P41145); assay: kappa CEREP ligand profiling; details: Compound concentration 10.0 uM
[30] = target: Mu-type opioid receptor (Homo sapiens) (UniProt P35372); assay: mu CEREP ligand profiling; details: Compound concentration 10.0 uM
[31] = target: D(3) dopamine receptor (Homo sapiens) (UniProt P35462); details: Compound concentration 10.0 uM
Description: D3 CEREP ligand profiling

[32] = target: D(4) dopamine receptor (Homo sapiens) (UniProt P21917); details: Compound concentration 10.0 uM
Description: D4 CEREP ligand profiling

[33] = target: Calcium-activated potassium channel (Homo sapiens) (UniProt Q92952+Q9UGI6+Q12791+O15554+Q9H2S1+A8MYU2); details: Compound concentration 10.0 uM
Description: SK+Ca channel CEREP ligand profiling

[34] = target: P2Y receptor (Homo sapiens) (UniProt Q9H244+P51582+P47900+P41231+Q15391+Q15077+Q96G91+Q9BPV8); details: Compound concentration 10.0 uM
Description: P2Y CEREP ligand profiling

[35] = target: Voltage-gated potassium channel (K+V channel) (Homo sapiens, UniProt O43525+O43526+O95259+P16389+P17658+P22001+P22459+P22460+P48547+P51787+P56696+Q03721+Q09470+Q12809+Q14003+Q14721+Q16322+Q6PIU1+Q8NCM2+Q8TAE7+Q8TDN1+Q8TDN2+Q92953+Q96KK3+Q96L42+Q96PR1+Q96RP8+Q9BQ31+Q9H252+Q9H3M0+Q9NR82+Q9NS40+Q9NSA2+Q9NZV8+Q9UIX4+Q9UJ96+Q9UK17+Q9ULD8+Q9ULS6+Q9UQ05); assay: K+V channel CEREP ligand profiling; type: protein assay; details: compound concentration 10 uM

Chain of Sodium-dependent dopamine transporter (Homo sapiens) (Q01959 whole entry): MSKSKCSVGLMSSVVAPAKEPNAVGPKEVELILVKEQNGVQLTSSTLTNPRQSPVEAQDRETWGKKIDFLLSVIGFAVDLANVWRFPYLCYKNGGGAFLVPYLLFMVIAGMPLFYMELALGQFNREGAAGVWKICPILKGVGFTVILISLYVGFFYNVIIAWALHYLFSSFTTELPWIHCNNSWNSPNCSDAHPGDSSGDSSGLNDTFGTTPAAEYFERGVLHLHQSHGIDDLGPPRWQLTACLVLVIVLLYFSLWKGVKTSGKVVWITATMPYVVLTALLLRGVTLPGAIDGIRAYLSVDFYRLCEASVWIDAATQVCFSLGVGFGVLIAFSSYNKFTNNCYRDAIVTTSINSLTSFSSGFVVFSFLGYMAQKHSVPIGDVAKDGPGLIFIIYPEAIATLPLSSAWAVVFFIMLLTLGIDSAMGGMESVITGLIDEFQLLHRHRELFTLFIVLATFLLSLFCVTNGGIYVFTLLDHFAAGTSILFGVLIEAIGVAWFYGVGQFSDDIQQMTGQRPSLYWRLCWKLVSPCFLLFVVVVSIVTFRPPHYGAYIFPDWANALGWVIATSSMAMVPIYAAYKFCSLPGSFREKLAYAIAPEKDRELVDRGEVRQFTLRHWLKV
Chain of Mu-type opioid receptor (Homo sapiens) (P35372 whole entry): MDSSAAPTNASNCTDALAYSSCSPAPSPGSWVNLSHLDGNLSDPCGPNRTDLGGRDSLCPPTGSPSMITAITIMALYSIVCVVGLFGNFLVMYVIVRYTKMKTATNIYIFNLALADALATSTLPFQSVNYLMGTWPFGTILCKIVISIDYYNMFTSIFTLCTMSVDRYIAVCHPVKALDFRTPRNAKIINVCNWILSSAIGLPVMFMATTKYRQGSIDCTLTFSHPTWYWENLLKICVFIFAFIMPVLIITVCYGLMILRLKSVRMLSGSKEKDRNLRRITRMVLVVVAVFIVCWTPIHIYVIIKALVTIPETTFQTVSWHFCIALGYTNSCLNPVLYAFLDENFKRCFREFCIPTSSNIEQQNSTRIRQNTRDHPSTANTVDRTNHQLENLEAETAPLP
Chain of D(3) dopamine receptor (Homo sapiens) (P35462 whole entry): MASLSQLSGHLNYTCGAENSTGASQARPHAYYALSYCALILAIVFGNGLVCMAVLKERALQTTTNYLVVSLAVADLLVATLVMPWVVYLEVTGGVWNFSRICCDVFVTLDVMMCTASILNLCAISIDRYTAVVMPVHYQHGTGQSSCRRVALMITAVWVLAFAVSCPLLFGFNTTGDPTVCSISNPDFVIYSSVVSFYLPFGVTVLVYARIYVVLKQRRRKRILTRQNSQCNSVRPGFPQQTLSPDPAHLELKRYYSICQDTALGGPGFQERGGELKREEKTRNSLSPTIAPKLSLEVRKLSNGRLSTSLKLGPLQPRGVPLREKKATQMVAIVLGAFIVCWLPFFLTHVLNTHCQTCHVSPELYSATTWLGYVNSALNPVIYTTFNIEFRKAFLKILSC
Chain of 5-hydroxytryptamine receptor 2C (Homo sapiens) (P28335 whole entry): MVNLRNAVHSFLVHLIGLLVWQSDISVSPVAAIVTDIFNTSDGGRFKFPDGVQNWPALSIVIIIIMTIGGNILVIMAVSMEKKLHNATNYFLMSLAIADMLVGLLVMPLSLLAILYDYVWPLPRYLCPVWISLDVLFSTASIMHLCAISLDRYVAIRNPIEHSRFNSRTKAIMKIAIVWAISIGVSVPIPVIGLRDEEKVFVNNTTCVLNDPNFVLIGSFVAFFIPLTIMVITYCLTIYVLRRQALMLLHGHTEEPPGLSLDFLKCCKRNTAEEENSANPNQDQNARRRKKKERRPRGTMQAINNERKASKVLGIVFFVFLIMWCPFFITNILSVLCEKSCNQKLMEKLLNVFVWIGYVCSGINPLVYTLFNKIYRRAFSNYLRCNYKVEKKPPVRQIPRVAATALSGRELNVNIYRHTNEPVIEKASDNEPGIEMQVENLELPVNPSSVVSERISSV
Chain of Nociceptin receptor (Homo sapiens) (P41146 whole entry): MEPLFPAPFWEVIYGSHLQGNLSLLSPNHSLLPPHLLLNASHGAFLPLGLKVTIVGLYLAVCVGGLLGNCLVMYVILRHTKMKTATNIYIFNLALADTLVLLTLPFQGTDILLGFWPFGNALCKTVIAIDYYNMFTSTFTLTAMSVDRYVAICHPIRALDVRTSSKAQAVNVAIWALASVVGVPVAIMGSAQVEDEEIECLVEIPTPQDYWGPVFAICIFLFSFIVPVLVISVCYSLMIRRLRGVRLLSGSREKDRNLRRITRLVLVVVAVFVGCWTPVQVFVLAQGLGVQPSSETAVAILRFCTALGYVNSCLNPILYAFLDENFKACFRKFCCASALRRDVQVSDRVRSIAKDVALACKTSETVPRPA
Chain of Adenosine receptor A2a (Homo sapiens) (P29274 whole entry): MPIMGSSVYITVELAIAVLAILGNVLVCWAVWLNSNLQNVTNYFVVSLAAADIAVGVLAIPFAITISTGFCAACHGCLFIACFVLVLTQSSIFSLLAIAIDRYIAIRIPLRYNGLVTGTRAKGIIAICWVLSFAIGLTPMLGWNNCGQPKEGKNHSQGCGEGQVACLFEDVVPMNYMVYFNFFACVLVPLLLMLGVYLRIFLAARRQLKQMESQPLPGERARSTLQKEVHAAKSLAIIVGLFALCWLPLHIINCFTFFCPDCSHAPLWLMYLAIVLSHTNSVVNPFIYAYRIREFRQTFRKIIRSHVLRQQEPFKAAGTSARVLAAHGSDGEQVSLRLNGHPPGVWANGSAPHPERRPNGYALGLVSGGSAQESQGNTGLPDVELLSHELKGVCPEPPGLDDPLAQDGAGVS
Chain of Muscarinic acetylcholine receptor M2 (Homo sapiens) (P08172 whole entry): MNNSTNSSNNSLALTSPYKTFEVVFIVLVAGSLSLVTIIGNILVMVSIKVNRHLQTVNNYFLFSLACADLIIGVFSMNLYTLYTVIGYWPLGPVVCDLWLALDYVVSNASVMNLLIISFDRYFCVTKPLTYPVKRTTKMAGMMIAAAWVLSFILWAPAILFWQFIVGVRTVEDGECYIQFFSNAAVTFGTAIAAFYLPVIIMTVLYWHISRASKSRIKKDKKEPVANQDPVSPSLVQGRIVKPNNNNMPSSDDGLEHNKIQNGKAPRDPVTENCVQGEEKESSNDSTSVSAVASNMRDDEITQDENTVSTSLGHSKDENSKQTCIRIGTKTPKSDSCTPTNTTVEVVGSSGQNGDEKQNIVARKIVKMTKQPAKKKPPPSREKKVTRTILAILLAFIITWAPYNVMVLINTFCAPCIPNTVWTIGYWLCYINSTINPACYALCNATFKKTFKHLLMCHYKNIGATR
Chain of Type-2 angiotensin II receptor (Homo sapiens) (P50052 whole entry): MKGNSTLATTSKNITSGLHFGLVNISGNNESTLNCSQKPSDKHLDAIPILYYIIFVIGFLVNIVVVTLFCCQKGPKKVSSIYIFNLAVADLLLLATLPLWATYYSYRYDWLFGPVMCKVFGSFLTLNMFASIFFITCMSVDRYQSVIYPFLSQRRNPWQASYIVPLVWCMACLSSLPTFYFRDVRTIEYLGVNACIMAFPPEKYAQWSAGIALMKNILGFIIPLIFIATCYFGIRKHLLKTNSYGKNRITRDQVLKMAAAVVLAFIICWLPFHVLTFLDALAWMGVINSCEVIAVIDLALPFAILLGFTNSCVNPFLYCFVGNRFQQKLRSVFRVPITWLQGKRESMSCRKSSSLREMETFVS
Chain of Dual specificity protein kinase CLK4 (Homo sapiens) (Q9HAZ1 whole entry, looked up): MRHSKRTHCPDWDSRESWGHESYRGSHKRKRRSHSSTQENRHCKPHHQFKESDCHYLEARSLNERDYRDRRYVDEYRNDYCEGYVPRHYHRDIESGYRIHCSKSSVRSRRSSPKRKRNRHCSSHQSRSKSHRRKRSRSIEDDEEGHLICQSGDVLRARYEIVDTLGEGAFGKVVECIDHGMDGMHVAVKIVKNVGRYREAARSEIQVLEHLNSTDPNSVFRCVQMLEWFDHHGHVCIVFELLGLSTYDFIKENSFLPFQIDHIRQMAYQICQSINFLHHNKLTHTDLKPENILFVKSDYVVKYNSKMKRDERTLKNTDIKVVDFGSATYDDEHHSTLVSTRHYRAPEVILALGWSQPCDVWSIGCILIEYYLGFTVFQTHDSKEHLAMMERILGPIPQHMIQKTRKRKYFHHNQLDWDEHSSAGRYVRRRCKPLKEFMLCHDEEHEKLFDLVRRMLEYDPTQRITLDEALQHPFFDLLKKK
Chain of Type-1 angiotensin II receptor (Homo sapiens) (P30556 whole entry): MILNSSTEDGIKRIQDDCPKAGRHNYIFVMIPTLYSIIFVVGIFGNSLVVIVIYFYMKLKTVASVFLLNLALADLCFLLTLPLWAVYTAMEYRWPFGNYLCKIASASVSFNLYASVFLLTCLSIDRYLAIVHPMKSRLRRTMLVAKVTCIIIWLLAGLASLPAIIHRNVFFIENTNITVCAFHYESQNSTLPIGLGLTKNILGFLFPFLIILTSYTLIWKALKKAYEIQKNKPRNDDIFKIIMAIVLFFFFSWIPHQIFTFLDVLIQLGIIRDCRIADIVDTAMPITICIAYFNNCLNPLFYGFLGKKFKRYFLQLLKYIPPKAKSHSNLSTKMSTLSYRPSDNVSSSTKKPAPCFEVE
Chain of Vasopressin V1a receptor (Homo sapiens) (P37288 whole entry, looked up): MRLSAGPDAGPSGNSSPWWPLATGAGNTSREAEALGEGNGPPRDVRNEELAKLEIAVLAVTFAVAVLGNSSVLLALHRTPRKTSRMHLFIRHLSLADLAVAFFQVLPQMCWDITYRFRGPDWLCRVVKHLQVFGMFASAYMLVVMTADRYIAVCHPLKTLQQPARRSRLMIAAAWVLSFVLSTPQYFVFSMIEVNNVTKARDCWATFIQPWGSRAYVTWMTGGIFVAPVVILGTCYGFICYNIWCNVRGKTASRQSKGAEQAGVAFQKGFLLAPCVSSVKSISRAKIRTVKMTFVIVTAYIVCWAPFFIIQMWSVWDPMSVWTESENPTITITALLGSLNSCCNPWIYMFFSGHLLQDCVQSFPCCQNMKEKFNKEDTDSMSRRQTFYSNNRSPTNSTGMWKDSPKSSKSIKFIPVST

Compound: CSc1cccnc1N1CCN(Cc2nc3ccccc3[nH]2)CC1 [A-769]
- IC50 (D(4) dopamine receptor [1]): > 10 µM (not active)
- residual activity [2]: 100%
- residual activity [3]: 96%

Compound: c1ccc(N2CCN(Cc3nc4ccccc4[nH]3)CC2)nc1 [ABT-724]
- inhibition [4]: 10%
- inhibition [5]: < 10%
- Ki (D(4) dopamine receptor [6]): 0.0468 µM (active)
- inhibition [7]: < 10%
- inhibition [8]: < 10%
- inhibition [9]: 10%
- inhibition [10]: < 10%
- inhibition [11]: < 10%
- inhibition [12]: 24%
- inhibition [13]: < 10%
- inhibition [14]: < 10%
- inhibition [15]: < 10%
- inhibition [16]: < 10%
- inhibition [17]: < 10%
- inhibition [18]: < 10%
- inhibition [19]: 11%
- inhibition [20]: < 10%
- inhibition [21]: 28%
- inhibition [22]: < 10%
- inhibition [23]: < 10%
- inhibition [24]: 21%
- inhibition [25]: < 10%
- inhibition [26]: < 10%
- inhibition [27]: < 10%
- inhibition [28]: < 10%
- inhibition [29]: 68%
- inhibition [30]: 51%
- inhibition [31]: < 10%
- inhibition [32]: 99%
- inhibition [33]: < 10%
- inhibition [34]: < 10%
- inhibition at 10 µM [35]: < 10% (not active)
